The results in this text go back to ChEMBL document CHEMBL1201862, “PubChem BioAssay data set” (2004).

Common to all, as to format: functional
For assay [1], the target named is T1, Caspase-3 (Homo sapiens, UniProt P42574).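 Further: Dose-response selectivity test against caspase-3 for candidate inhibitors of sentrin-specific proteases (SENPs).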
T1 sequence (P42574 whole entry): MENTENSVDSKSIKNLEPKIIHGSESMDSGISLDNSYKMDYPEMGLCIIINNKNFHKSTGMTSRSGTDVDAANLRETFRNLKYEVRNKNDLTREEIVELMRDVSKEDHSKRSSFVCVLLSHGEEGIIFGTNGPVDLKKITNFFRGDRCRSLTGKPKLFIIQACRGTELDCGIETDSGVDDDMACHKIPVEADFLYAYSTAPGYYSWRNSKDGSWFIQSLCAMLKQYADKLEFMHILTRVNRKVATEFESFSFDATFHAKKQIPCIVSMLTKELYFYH

The target of assay [2] is T2, Sentrin-specific protease 8 (Homo sapiens, UniProt Q96LD8).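 Further: luminescence read-out of SENP8 inhibition, dose-response confirmation following an ultra-high-throughput screen.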
T2 sequence (Q96LD8 whole entry): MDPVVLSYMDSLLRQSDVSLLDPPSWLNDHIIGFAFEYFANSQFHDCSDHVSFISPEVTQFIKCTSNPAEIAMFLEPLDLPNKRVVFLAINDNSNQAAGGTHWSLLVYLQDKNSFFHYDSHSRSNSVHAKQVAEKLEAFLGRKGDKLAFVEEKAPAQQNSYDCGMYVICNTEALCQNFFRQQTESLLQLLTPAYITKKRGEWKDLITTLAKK

The target of assay [3] is T3, Orexin/Hypocretin receptor type 1 (Homo sapiens, UniProt O43613).
T3 sequence (O43613 whole entry): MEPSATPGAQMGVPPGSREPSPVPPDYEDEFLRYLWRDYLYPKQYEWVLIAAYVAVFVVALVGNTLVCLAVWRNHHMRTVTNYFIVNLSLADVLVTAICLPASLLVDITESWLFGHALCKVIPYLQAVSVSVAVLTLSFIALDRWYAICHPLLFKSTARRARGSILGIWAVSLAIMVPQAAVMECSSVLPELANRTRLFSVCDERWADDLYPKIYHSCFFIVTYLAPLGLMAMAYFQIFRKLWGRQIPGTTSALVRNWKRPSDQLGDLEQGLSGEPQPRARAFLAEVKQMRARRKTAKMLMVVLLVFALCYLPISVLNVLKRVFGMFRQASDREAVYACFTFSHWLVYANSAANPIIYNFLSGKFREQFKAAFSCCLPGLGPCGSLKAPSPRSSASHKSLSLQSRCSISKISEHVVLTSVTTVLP
As to the kind of experiment: Fluorescence-based cell-based high throughput dose response assay for antagonists of the orexin 1 receptor (OX1R; HCRTR1). [Related pubchem assays (depositor defined):AID434989, AID435008, AID463079, AID485270, AID492963, AID492964, AID492965, AID493232, AID504717, AID504718].

In assay [4] the target is Dual specificity mitogen-activated protein kinase kinase 1 (Homo sapiens, UniProt Q02750). Briefly: Navigating the Kinome. Panel member name: MAP2K1.
Assay [5] has as its target Serine/threonine-protein kinase TBK1 (Homo sapiens, UniProt Q9UHD2). As to the kind of experiment: Navigating the Kinome. Panel member name: TBK1.
The target in assay [6] is Proto-oncogene tyrosine-protein kinase receptor Ret (Homo sapiens, UniProt P07949).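 Further: measured within a kinome-wide profiling panel, RET as the panel member.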
Assay [7] deals with Activin receptor type-1 (Homo sapiens, UniProt Q04771). Briefly: Navigating the Kinome. Panel member name: ACVR1.
Assay [8] concerns the target T4, Aurora kinase A (Homo sapiens, UniProt O14965).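 Further: value from the Navigating the Kinome kinase panel profiling, panel entry STK6.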
T4 sequence (O14965 whole entry): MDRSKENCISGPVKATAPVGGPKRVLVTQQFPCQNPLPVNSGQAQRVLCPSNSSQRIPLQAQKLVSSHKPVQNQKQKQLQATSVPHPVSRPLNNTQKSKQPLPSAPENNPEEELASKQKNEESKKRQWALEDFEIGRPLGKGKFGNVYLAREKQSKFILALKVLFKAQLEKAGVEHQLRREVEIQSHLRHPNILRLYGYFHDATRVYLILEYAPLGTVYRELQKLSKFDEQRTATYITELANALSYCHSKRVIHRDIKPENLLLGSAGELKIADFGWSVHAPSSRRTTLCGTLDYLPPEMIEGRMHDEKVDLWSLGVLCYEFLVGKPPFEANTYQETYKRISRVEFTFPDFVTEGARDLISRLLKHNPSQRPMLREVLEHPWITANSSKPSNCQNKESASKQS

Assay [9] addresses Fibroblast growth factor receptor 1 (Homo sapiens, UniProt P11362).
The target in assay [10] is Casein kinase I isoform alpha (Homo sapiens, UniProt P48729).
Chain of Casein kinase I isoform alpha (P48729 whole entry, canonical isoform): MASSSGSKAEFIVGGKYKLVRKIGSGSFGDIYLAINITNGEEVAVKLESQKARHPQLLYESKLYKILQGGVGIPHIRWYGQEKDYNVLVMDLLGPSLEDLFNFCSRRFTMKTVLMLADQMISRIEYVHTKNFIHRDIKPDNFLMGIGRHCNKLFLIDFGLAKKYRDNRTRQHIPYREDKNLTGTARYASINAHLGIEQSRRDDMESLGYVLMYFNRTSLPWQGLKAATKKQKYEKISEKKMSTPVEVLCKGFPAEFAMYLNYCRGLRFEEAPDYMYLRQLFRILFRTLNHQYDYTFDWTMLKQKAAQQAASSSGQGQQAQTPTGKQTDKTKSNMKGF
Assay [11] addresses Mitogen-activated protein kinase 9 (Homo sapiens, UniProt P45984).
Assay [12] addresses Mitogen-activated protein kinase kinase kinase kinase 2 (Homo sapiens, UniProt Q12851).
Assay [13] has as its target Hepatocyte growth factor receptor (Homo sapiens, UniProt P08581).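 Further: kinase panel profiling across the kinome, with MET as the panel member.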
Assay [14] deals with Receptor-type tyrosine-protein kinase FLT3 (Homo sapiens, UniProt P36888).
Assay [15] addresses Platelet-derived growth factor receptor alpha (Homo sapiens, UniProt P16234). Briefly: Navigating the Kinome. Panel member name: PDGFRA.
Assay [16] deals with Leucine-rich repeat serine/threonine-protein kinase 2 (Homo sapiens, UniProt Q5S007).
The target in assay [17] is Tyrosine-protein kinase Fyn (Homo sapiens, UniProt P06241).
Assay [18] has as its target Serine/threonine-protein kinase Nek2 (Homo sapiens, UniProt P51955).
Assay [19] concerns the target Cyclin-dependent kinase 8 (Homo sapiens, UniProt P49336). As to the kind of experiment: Navigating the Kinome. Panel member name: CDK8.
In assay [20] the target is Cyclin-dependent kinase 7 (Homo sapiens, UniProt P50613).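 Further: value comes from a kinome-wide kinase profiling panel in which CDK7 is one member.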
Chain of Cyclin-dependent kinase 7 (P50613 whole entry): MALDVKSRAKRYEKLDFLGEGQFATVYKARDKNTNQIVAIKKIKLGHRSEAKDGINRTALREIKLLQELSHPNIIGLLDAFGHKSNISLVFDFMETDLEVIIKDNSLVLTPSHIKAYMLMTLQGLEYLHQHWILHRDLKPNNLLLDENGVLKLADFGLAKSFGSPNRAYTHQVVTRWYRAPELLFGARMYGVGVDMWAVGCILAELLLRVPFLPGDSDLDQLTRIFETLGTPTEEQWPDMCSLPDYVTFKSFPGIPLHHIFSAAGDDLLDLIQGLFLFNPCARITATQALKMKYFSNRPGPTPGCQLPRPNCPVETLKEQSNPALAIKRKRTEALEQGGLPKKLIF
Assay [21] has as its target Cyclin-dependent kinase 9 (Homo sapiens, UniProt P50750).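 Further: value from the CDK9 entry of a kinome-spanning kinase panel.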
In assay [22] the target is BDNF/NT-3 growth factors receptor (Homo sapiens, UniProt Q16620).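 Further: NTRK2 measured as one member of a broad kinome-wide kinase profiling panel.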
Chain of BDNF/NT-3 growth factors receptor (Q16620 whole entry): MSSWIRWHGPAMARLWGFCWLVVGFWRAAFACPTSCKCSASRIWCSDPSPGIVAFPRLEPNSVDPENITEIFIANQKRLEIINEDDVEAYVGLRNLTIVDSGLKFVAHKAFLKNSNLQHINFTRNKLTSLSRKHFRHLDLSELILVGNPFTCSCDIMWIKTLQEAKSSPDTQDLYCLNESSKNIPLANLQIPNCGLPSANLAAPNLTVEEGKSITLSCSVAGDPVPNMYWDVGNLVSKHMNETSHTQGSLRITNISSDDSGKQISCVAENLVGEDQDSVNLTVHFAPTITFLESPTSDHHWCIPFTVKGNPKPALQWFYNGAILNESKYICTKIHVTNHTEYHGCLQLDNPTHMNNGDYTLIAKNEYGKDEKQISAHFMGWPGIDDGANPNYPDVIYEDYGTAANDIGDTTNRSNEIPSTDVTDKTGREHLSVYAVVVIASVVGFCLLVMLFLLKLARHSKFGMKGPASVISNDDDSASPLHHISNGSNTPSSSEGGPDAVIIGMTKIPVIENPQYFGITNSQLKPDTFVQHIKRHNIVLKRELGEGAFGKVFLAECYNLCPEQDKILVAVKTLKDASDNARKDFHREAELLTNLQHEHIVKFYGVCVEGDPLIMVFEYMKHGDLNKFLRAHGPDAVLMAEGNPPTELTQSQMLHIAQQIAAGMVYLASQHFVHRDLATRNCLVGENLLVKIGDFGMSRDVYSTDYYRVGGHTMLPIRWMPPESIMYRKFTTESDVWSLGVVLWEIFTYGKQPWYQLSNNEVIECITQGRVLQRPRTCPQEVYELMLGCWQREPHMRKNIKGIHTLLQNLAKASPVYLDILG
In assay [23] the target is Macrophage-stimulating protein receptor (Homo sapiens, UniProt Q04912). As to the kind of experiment: Navigating the Kinome. Panel member name: MST1R.
In assay [24] the target is Macrophage colony-stimulating factor 1 receptor (Homo sapiens, UniProt P07333).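 Further: value comes from the Navigating the Kinome screening panel, CSF1R member.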
Chain of Macrophage colony-stimulating factor 1 receptor (P07333 whole entry): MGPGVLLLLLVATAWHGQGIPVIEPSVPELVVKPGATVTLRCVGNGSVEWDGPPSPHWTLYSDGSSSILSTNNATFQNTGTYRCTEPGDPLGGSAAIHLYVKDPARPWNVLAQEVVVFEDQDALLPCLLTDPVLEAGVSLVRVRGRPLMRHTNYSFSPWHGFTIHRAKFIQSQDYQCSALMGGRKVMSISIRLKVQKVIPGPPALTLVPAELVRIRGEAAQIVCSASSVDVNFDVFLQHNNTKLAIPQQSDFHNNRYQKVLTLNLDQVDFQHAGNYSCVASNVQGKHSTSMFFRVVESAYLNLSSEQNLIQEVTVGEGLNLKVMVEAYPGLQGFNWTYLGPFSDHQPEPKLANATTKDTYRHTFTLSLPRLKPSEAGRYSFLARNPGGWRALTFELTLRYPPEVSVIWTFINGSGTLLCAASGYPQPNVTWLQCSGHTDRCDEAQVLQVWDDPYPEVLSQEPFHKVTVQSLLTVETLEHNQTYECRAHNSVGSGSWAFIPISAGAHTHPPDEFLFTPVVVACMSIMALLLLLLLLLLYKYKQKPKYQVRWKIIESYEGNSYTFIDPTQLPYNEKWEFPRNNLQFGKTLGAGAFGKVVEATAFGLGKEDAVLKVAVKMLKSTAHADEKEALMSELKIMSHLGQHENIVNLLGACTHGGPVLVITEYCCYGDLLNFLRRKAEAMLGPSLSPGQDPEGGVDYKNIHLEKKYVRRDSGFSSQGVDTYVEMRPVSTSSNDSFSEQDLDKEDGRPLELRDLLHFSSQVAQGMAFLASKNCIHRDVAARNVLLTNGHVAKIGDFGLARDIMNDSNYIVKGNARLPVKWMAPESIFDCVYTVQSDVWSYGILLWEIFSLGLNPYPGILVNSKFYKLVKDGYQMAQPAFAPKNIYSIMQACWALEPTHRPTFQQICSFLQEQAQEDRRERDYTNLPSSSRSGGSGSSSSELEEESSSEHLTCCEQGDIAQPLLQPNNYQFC
For assay [25], the target named is Dual specificity mitogen-activated protein kinase kinase 2 (Homo sapiens, UniProt P36507). Briefly: Navigating the Kinome. Panel member name: MAP2K2.
Chain of Dual specificity mitogen-activated protein kinase kinase 2 (P36507 whole entry): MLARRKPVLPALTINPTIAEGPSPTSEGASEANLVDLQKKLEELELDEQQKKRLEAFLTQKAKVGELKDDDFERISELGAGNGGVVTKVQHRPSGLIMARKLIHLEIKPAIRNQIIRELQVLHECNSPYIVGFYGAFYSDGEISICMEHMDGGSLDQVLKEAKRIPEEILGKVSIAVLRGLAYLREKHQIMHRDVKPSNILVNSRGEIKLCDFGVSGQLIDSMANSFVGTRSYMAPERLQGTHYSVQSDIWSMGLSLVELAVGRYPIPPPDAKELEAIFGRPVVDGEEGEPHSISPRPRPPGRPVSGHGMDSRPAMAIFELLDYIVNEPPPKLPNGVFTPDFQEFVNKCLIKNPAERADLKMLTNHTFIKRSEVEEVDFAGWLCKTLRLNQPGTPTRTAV
In assay [26] the target is Leukocyte tyrosine kinase receptor (Homo sapiens, UniProt P29376). As to the kind of experiment: Navigating the Kinome. Panel member name: LTK.
Assay [27] concerns the target Mitogen-activated protein kinase 14 (Homo sapiens, UniProt Q16539).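 Further: part of a kinome-wide panel, MAPK14 entry.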

Structures are written as SMILES. The source made the active and inactive calls.

Chain of Mitogen-activated protein kinase 9 (P45984 whole entry): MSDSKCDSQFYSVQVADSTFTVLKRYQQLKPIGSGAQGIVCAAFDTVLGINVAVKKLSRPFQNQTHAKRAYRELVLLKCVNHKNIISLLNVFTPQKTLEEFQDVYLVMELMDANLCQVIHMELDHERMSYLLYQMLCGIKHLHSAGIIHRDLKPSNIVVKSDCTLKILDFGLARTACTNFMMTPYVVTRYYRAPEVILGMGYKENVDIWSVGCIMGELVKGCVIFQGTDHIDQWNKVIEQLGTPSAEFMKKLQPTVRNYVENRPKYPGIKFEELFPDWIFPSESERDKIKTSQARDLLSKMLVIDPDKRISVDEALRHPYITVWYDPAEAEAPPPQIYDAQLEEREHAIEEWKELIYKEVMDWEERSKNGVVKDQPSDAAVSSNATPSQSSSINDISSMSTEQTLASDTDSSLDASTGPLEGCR
Chain of Hepatocyte growth factor receptor (P08581 whole entry): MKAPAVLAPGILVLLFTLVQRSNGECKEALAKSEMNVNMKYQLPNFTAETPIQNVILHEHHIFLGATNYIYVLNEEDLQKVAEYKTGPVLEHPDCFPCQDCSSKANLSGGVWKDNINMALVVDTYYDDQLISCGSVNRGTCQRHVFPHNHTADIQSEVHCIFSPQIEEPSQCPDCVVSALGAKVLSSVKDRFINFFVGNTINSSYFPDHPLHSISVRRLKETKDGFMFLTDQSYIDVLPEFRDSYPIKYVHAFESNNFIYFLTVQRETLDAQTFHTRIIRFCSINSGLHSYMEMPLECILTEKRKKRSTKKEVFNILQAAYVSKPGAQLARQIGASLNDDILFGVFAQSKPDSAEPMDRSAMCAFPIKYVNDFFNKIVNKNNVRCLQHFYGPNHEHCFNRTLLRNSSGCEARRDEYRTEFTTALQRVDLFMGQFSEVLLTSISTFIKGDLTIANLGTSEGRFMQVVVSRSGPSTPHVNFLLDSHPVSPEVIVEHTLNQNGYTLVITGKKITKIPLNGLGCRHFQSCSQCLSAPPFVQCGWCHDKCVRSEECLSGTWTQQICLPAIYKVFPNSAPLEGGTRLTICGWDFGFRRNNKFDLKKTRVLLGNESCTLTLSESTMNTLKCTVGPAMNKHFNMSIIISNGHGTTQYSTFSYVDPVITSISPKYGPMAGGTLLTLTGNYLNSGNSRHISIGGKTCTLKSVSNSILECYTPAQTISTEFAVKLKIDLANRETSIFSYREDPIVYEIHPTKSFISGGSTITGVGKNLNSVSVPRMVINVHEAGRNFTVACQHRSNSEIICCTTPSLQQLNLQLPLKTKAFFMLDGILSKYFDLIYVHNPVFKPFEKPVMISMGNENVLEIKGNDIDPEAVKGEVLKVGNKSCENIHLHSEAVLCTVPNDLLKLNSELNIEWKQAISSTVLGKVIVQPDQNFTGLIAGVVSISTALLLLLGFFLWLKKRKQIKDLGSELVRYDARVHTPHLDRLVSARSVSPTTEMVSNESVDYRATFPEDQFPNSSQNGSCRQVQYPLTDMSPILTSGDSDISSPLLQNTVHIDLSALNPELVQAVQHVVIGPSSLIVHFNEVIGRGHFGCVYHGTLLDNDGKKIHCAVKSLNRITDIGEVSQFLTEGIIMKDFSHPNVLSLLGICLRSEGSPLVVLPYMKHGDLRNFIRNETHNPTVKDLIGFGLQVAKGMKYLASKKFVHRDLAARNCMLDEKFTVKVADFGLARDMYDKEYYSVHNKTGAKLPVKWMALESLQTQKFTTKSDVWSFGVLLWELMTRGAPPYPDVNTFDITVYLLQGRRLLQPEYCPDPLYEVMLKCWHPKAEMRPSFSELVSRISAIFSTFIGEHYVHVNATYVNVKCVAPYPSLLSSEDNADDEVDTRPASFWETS
Chain of Mitogen-activated protein kinase 14 (Q16539 whole entry): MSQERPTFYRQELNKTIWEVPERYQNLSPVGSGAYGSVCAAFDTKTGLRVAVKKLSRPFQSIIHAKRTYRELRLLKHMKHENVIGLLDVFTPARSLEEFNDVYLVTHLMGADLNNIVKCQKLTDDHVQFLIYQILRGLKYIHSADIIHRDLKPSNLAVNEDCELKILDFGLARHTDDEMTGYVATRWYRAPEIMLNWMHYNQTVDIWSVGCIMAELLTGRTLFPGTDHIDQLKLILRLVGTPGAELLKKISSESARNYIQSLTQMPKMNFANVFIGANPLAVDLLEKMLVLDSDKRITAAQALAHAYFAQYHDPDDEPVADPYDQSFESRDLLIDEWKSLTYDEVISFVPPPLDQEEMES

In general, IC50 refers to the midpoint of a concentration-inhibition curve. Take `Cc1ccnc2ccc(-c3nc4ccccc4o3)cc12`: the IC50 is 5.31 µM (active) in assay [1], 71 µM (active) in assay [2] and 4.26 µM (active) in assay [3].

One may read the Ki as the equilibrium dissociation constant of an inhibitor or competing ligand from its target. Consider `O=C(NCCc1cccs1)N1CC=C(c2c[nH]c3ncccc23)CC1`, for which the inhibitory constant (Ki) in assay [4] is 2.51 µM (active); in assay [5], > 3.16 µM (inactive); in assay [6], > 3.16 µM (inactive); in [7] it was 1.26 µM (active); in assay [8], > 1.58 µM (inactive); in [9] it was > 3.98 µM (inactive). Also, the Ki was 1.58 µM (active) in assay [10]; > 3.98 µM (inactive) in [11]; > 2.51 µM (inactive) in assay [12]; > 2.51 µM (inactive) in assay [13]; > 3.16 µM (inactive) in [14]; > 2.51 µM (inactive) in [15]. Moreover, the Ki in [16] was 0.631 µM (active); in assay [17] it was > 6.31 µM (inactive); in assay [18] it was > 3.16 µM (inactive); in assay [19] it was 0.0794 µM (active); in assay [20], 1 µM (active); in [21], 0.398 µM (active). Also, the Ki was > 3.98 µM (inactive) in [22]; 2.51 µM (active) in assay [23]; > 2.51 µM (inactive) in assay [24]; 3.16 µM (active) in [25]; > 2.51 µM (inactive) in [26]; > 3.98 µM (inactive) in [27].
